Data on six compounds can be found in patent US20260002132A1, “METHOD FOR PRODUCING RENAL COLLECTING DUCT CELLS AND PELVIC EPITHELIAL CELLS” (Kyoto University, priority 2022, published 2026).

Like-named read-outs stand apart in the source and are kept apart here.

Assay [1] relates to ureteric bud cells derived from Tet-On-ELF5-1231A3 iPS cells. The assay is classed as cell-based, human. The following applies: for effect on AQP2 expression in combination with IBMX: factor added together with IBMX. Here is the method:
Ureteric bud organoids on Day 6 were prepared from the Tet-On-ELF5-1231A3 iPS cells using the method previously described (WO2021/066076). In a 1.5 mL tube, 10 ureteric bud organoids were collected and washed twice with 500 μL PBS. 100 μL Accutase was added thereto, and the mixture was incubated for 3 minutes at 37° C., 5% CO2. The ureteric bud organoids were completely transformed into single cells by pipetting, and 900 μL DMEM/10% PBS was added thereto to count cells.
To a 24-well plate (6-well, 12-well, 48-well or 96-well plate, or 6-well, 12-well, or 24-well transwell plate may also be used), the necessary amount of suspension was collected to achieve 0.25 to 1.0×10^5 cells/cm^2, and centrifuged at 300 G for 5 minutes. The cell count was preferably 1×10^5 cells/cm^2. After removing the supernatant, cells were resuspended in a medium comprising DMEM/F12 GlutaMAX+B-27 Supplement minus vitamin A having 10% FBS, 1 μM A83-01, and 1 μM IWR-1 (renal collecting duct progenitor cell-induction medium) added thereto, to which 0.125 μg/cm^2 iMatrix-511 silk and 10 μM Y-27632 were added, and the suspension was adjusted and seeded so that each well contains 500 μL of the suspension. 0.1 μM TTNPB may be further added the medium.
The medium may further comprise 0.1 μM TTNPB, 100 nM desmopressin (dDAVP), 10 nM aldosterone, and 100 nM K252a, and preferably a medium comprising 3 agents of TTNPB, dDAVP, and aldosterone is suitable. Thereafter, the medium was replaced once every 2 days, and the induction into the principal cells was completed on Day 4.
The cultured cells were washed twice with PBS, and then, fixed with 4% PFA at 4° C. for 20 minutes. The cells were washed twice with PBS, and then, blocked using 2% normal donkey serum (MERCK)/PBT (PBS/0.25% Triton X-100, Nacalai tesque, Inc.) (blocking solution) at room temperature for 1 hour. Each primary antibody was diluted with the blocking solution at a rate of 1:200, and left to stand with samples at 4° C. for 24 hours. After washing twice with 0.25% PBT, each secondary antibody was diluted with the blocking solution at a rate of 1:500, and left to stand with samples at room temperature for 2 hours. The cells were observed using a microscope such as BZX-700 (Keyence Corporation).

The test system of assay [2] is renal collecting duct principal cells. The assay can be described thus: Apical-basal polarity of AQP2 in renal collecting duct principal cells, transwell culture. The following applies: 100 nM dDAVP added to the medium in the lower chamber. Format: cell-based, human. Here is the method:
Ureteric bud organoids on Day 6 were prepared from the Tet-On-ELF5-1231A3 iPS cells using the method previously described (WO2021/066076). In a 1.5 mL tube, 10 ureteric bud organoids were collected and washed twice with 500 μL PBS. 100 μL Accutase was added thereto, and the mixture was incubated for 3 minutes at 37° C., 5% CO2. The ureteric bud organoids were completely transformed into single cells by pipetting, and 900 μL […] was added thereto to count cells. To evaluate the apical-basal polarity, the cells were seeded on a Transwell 12-well plate (Corning Inc., 3460). Specifically, the necessary amount of suspension was collected to achieve 0.5 to 2×10^5 cells/cm^2, and centrifuged at 300 G for 5 minutes. The cell count was preferably 1×10^5 cells/cm^2. After removing the supernatant, cells were resuspended in the renal collecting duct progenitor cell-induction medium, to which 0.125 μg/cm^2 iMatrix-511 silk and 10 μM Y-27632 were added, and the suspension was adjusted and seeded in the upper chamber so that each well contains 300 μL of the suspension. 0.1 μM TTNPB may be further added the medium. 2 or 3 days later, the medium in the upper chamber was removed, and 300 μL renal collecting duct principal cell-induction medium was placed in the lower chamber. […]

Assay [3] concerns renal collecting duct principal cell-containing organoid. Briefly: Functional evaluation of renal collecting duct principal cell-containing organoids (water uptake, cystoid structure). Format: cell-based, human. The following applies: organoid on Day 6 of the induction. Here is the method:
Ureteric bud organoids on Day 6 were prepared from the Tet-On-ELF5-1231A3 iPS cells using the method previously described (WO2021/066076). The medium was removed and replaced with the renal collecting duct progenitor cell-induction medium of 100 μL/well. 0.1 μM TTNPB may be further added the medium.
3 days later, the medium was replaced with the renal collecting duct principal cell-induction medium of 100 μL/well. The medium may further comprise 0.1 μM TTNPB, 100 nM dDAVP, 10 nM aldosterone, and 100 nM K252a, and preferably a medium comprising 3 agents of TTNPB, dDAVP, and aldosterone is suitable. The medium was replaced once every 2 days, and the preparation of principal cell-containing organoids was completed on Day 6.
The functional evaluation tests were performed on the renal collecting duct principal cell-containing organoids. For the renal collecting duct principal cell-containing organoid on Day 6 of the induction, the medium was replaced with a renal collecting duct principal cell-induction medium, to which 1 μM dDAVP, or with 1 μM dDAVP and 10 μM tolvaptan were added.

Assay [4] concerns mouse renal collecting duct principal cell lines. The following applies: previously reported (Ando F. et al., Nat Commun. 2018); cited from earlier work.
[5] abbreviates: factor added to principal cell-induction medium excluding IBMX, planar culture.
Setting [6] is: 400 μM IBMX with 4 μM doxycycline in renal collecting duct progenitor cell-induction medium.

Turning to `C[C@]12CCC(=O)C=C1CC[C@@H]1[C@@H]2[C@@H](O)C[C@]2(C=O)[C@@H](C(=O)CO)CC[C@@H]12` [ALD, aldosterone], the AQP2 expression result in assay [1] (setting [5]) is “the AQP2 expression was not promoted”. Besides, in assay [1] (planar culture), the “effect on AQP2 expression in combination with IBMX” value (shortened to “effect on AQP2 expression”) is “functioned additively with the addition of IBMX”.
For `NC(=O)CC[C@@H]1NC(=O)[C@H](Cc2ccccc2)NC(=O)[C@H](Cc2ccc(O)cc2)NC(=O)[C@@H](N)CSSC[C@@H](C(=O)N2CCC[C@H]2C(=O)N[C@@H](CCCN=C(N)N)C(=O)NCC(N)=O)NC(=O)[C@H](CC(N)=O)NC1=O` [AVP, arginine vasopressin], the AQP2 expression entry in assay [1] (setting [5]) is recorded as “the AQP2 expression was not promoted”. Besides, the “effect on AQP2 expression” value in assay [1] (planar culture) was “functioned additively with the addition of IBMX”.
For the compound `CC(C)Cn1c(=O)n(C)c(=O)c2[nH]cnc21` [IBMX, 3-isobutyl-1-methylxanthine], in assay [1] (setting [6]), the AQP2 expression result is “early expressed AQP2” and the AVPR2 expression result is reported as “expressed AVPR2”. Moreover, the AQP2 expression result in assay [1] (IBMX added with dDAVP, or with either of AVP and dDAVP, ALD and K252a, planar culture) is “the AQP2 expression was promoted”. Moreover, in assay [1] (IBMX at concentrations up to 400 μM, with 4 μM doxycycline), the “number of AQP2-expressing cells” value is reported as “concentration-dependently increased”.
Take `COC(=O)[C@@]1(O)C[C@H]2O[C@]1(C)n1c3ccccc3c3c4c(c5c6ccccc6n2c5c31)C(=O)NC4` [K252a]: the AQP2 expression entry in assay [1] (setting [5]) is reported as “the AQP2 expression was not promoted”. Also, in assay [1] (planar culture), the “effect on AQP2 expression” value is recorded as “functioned additively with the addition of IBMX”.
For the compound `NC(=O)CC[C@@H]1NC(=O)[C@H](Cc2ccccc2)NC(=O)[C@H](Cc2ccc(O)cc2)NC(=O)CCSSC[C@@H](C(=O)N2CCC[C@H]2C(=O)N[C@H](CCCN=C(N)N)C(=O)NCC(N)=O)NC(=O)[C@H](CC(N)=O)NC1=O` [dDAVP, 1-desamino-8-D-arginine vasopressin], the “polarization of AQP2 expression” value in assay [2] is “increase in polarization of AQP2 expression to the contralateral side”. In addition, the “water uptake and cystoid structure formation” value in assay [3] (1 μM dDAVP) was “water uptake was promoted from the next day, and a cystoid structure was formed”. In assay [4], the “AQP2 expression and apical polarization” value is “promotes AQP2 expression and causes apical polarization”. In assay [1] (planar culture), the “effect on AQP2 expression” value is recorded as “functioned additively with the addition of IBMX”.
On to `Cc1ccccc1C(=O)Nc1ccc(C(=O)N2CCCC(O)c3cc(Cl)ccc32)c(C)c1` (stereo not drawn) [tolvaptan], for which the “formation of a cystoid structure” value in assay [3] (10 μM tolvaptan together with 1 μM dDAVP) is “the formation of a cystoid structure was suppressed”.
